Laboratory results as given in patent publication US20200181104A1, “SSAO INHIBITORS AND USES THEREOF” (METACRINE, INC., priority 2018, published 2020).

molecular target: T1, Recombinant Human SSAO/VAP-1/AOC3 (Homo sapiens, UniProt Q16853); assay: Human Semicarbazide-Sensitive Amine Oxidase (SSAO) Assay; assay type: biochemical; conditions: recombinant enzyme, 30 minutes preincubation at 37° C., benzylamine substrate, Amplex Ultra Red/HRP fluorescence
T1 construct: purchased R&D systems 3957-AO
T1 sequence (Q16853 1-763): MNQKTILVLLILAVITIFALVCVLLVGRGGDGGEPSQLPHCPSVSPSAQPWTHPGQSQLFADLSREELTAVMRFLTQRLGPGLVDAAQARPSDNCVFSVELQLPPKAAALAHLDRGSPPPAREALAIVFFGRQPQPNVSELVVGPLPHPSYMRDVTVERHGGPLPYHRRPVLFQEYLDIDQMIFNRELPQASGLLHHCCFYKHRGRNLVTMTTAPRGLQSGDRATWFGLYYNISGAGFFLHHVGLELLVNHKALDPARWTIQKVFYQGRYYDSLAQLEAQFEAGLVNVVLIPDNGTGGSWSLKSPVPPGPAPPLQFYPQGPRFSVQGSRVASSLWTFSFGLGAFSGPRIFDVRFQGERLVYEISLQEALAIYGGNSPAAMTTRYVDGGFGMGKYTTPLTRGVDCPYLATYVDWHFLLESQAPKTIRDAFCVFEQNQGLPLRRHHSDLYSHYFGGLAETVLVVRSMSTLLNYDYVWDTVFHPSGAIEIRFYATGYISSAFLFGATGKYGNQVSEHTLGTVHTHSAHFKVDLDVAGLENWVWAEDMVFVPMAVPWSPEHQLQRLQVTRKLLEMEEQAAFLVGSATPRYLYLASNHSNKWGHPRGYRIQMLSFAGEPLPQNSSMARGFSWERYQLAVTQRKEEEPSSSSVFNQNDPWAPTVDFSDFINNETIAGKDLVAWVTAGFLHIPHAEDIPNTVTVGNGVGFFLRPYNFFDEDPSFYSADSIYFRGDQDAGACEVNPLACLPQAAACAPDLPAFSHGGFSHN
Description: Compounds were dissolved in DMSO to provide a Concentration Response Curve (CRC; at 500 times the final concentration) over a range of 6-10 dilutions.
Recombinant Human SSAO/VAP-1/AOC3 (R&D systems; Catalog #3957-AO) was used to screen compound potency in vitro, according to previously described methods (J Pharmacol Exp Ther. 2013 November; 347(2):365-74). SSAO enzyme was suspended in 50 mM HEPES buffer to a working concentration of 2.5 μg/ml and 40 μL of this enzyme mixture was then added to each well of a F16 Black Maxisorp 96 well Plate (Nunc, Catalog #475515). Ten microliters of each test compound (at 5 times the final concentration) were added to each well, resulting in a final well volume of 50 μL of the enzyme and inhibitor mixture. The compounds were preincubated with the enzyme for 30 minutes at 37° C., prior to the addition of a 40 μL volume of Amplex Ultra Red (125 uM AUR; Molecular Probes, Catalog # A36006)/Horseradish peroxidase (2.5 U/ml HRP; Sigma-Aldrich Catalog # P8375) oxidase detection reagent containing cytochrome C ([…]; Sigma-Aldrich Catalog # C7752). Cytochrome C was included in the AUR/HRP detection mixture to reduce the background fluorescence that can occur via the spontaneous redox reaction between AUR and HRP. The SSAO enzyme reaction was then initiated by adding 10 μL of the SSAO substrate, benzylamine (Sigma-Aldrich Catalog # B5136), and SSAO activity was measured in kinetic mode over a 30-120 minute sampling period (excit. 544 nm; emit 590 nm; cut off 570 nm; medium gain) to obtain IC50 values for enzyme activity in each treatment well.

| Structure (SMILES) | IC50 |
| --- | --- |
| NC/C(=C\F)COc1ccc(C23CCC(C(=O)N4CCN(CC(F)(F)F)CC4)(CC2)CC3)cc1 [Compound 2.30, (E)-(4-(4-((2-(aminomethyl)-3-fluoroallyl)oxy)phenyl)bicyclo [2.2.2]octan-1-yl)(4-(2,2,2-trifluoroethyl)piperazin-1-yl)methanone] | ≤ 10 nM |
| CC(=O)N1CCN(C(=O)C23CCC(c4ccc(OC/C(=C/F)CN)cc4)(CC2)CC3)CC1 [Compound 2.31, (E)-1-(4-(4-(4-((2-(aminomethyl)-3-fluoroallyl)oxy)phenyl)bicyclo [2.2.2]octane-1-carbonyl)piperazin-1-yl)ethanone] | ≤ 10 nM |
| COCCOCCNC(=O)C12CCC(c3ccc(OC/C(=C/F)CN)cc3)(CC1)CC2 [Compound 2.32, (E)-4-(4-((2-(aminomethyl)-3-fluoroallyl)oxy)phenyl)-N-(2-(2-methoxyethoxy)ethyl) bicyclo[2.2.2]octane-1-carboxamide] | ≤ 10 nM |
| NC/C(=C\F)COc1ccc(C23CCC(C(=O)NCC4(F)CCOCC4)(CC2)CC3)cc1 [Compound 2.33, (E)-4-(4-((2-(aminomethyl)-3-fluoroallyl)oxy)phenyl)-N-((4-fluorotetrahydro-2H-pyran-4-yl)methyl)bicyclo[2.2.2]octane-1-carboxamide] | ≤ 10 nM |
| CC(C)(CO)NC(=O)C12CCC(c3ccc(OC/C(=C/F)CN)cc3)(CC1)CC2 [Compound 2.34, (E)-4-(4-((2-(aminomethyl)-3-fluoroallyl)oxy)phenyl)-N-(1-hydroxy-2-methylpropan-2-yl)bicyclo[2.2.2]octane-1-carboxamide] | ≤ 10 nM |
| NC/C(=C\F)COc1ccc(C23CCC(C(=O)NCC4(O)CCOCC4)(CC2)CC3)cc1 [Compound 2.35, (E)-4-(4-((2-(aminomethyl)-3-fluoroallyl)oxy)phenyl)-N-((4-hydroxytetrahydro-2H-pyran-4-yl)methyl)bicyclo[2.2.2]octane-1-carboxamide] | ≤ 10 nM |
| CC1(CNC(=O)C23CCC(c4ccc(OC/C(=C/F)CN)cc4)(CC2)CC3)CCOCC1 [Compound 2.36, (E)-4-(4-((2-(aminomethyl)-3-fluoroallyl)oxy)phenyl)-N-((4-methyltetrahydro-2H-pyran-4-yl)methyl)bicyclo[2.2.2]octane-1-carboxamide] | ≤ 10 nM |
| CN(C)C(=O)CCNC(=O)C12CCC(c3ccc(OC/C(=C/F)CN)cc3)(CC1)CC2 [Compound 2.37, (E)-4-(4-((2-(aminomethyl)-3-fluoroallyl)oxy)phenyl)-N-(3-(dimethylamino)-3-oxopropyl)bicyclo[2.2.2]octane-1-carboxamide] | ≤ 10 nM |
| CC(C)N(CCO)C(=O)C12CCC(c3ccc(OC/C(=C/F)CN)cc3)(CC1)CC2 [Compound 2.38, (E)-4-(4-((2-(aminomethyl)-3-fluoroallyl)oxy)phenyl)-N-(2-hydroxyethyl)-N-isopropylbicyclo[2.2.2]octane-1-carboxamide] | ≤ 10 nM |
| COC1CN(C(=O)C23CCC(c4ccc(OC/C(=C/F)CN)cc4)(CC2)CC3)C1 [Compound 2.39, (E)-(4-(4-((2-(aminomethyl)-3-fluoroallyl)oxy)phenyl)bicyclo [2.2.2]octan-1-yl)(3-methoxyazetidin-1-yl)methanone] | ≤ 10 nM |
| NC/C(=C\F)COc1ccc(C23CCC(C(=O)N4CCC4)(CC2)CC3)cc1 [Compound 2.40, (E)-(4-(4-((2-(aminomethyl)-3-fluoroallyl)oxy)phenyl)bicyclo [2.2.2]octan-1-yl)(azetidin-1-yl)methanone] | ≤ 10 nM |
| NC/C(=C\F)COc1ccc(C23CCC(C(=O)NC4(C5CCOCC5)CC4)(CC2)CC3)cc1 [Compound 2.41, (E)-4-(4-((2-(aminomethyl)-3-fluoroallyl)oxy)phenyl)-N-(1-(tetrahydro-2H-pyran-4-yl)cyclopropyl)bicyclo[2.2.2] octane-1-carboxamide] | ≤ 10 nM |
| CC1(C)CC(NC(=O)C23CCC(c4ccc(OC/C(=C/F)CN)cc4)(CC2)CC3)CCO1 (stereo not shown) [Compound 2.42, (E)-4-(4-((2-(aminomethyl)-3-fluoroallyl)oxy)phenyl)-N-(2,2-dimethyltetrahydro-2H-pyran-4-yl)bicyclo[2.2.2]octane-1-carboxamide] | ≤ 10 nM |
| NC/C(=C\F)COc1ccc(C23CCC(C(=O)N4CC(CO)C4)(CC2)CC3)cc1 [Compound 2.43, (E)-(4-(4-((2-(aminomethyl)-3-fluoroallyl)oxy)phenyl)bicyclo [2.2.2]octan-1-yl)(3-(hydroxymethyl)azetidin-1-yl)methanone] | ≤ 10 nM |
| NC/C(=C\F)COc1ccc(C23CCC(C(=O)N4CC(OCCO)C4)(CC2)CC3)cc1 [Compound 2.44, (E)-(4-(4-((2-(aminomethyl)-3-fluoroallyl)oxy)phenyl)bicyclo [2.2.2]octan-1-yl)(3-(2-hydroxyethoxy)azetidin-1-yl)methanone] | ≤ 10 nM |
| Cc1cnc(CCNC(=O)C23CCC(c4ccc(OC/C(=C/F)CN)cc4)(CC2)CC3)o1 [Compound 2.45, (E)-4-(4-((2-(aminomethyl)-3-fluoroallyl)oxy)phenyl)-N-(2-(5-methyloxazol-2-yl)ethyl)bicyclo[2.2.2]octane-1-carboxamide] | ≤ 10 nM |
| NC/C(=C\F)COc1ccc(C23CCC(C(=O)NC4CCC(F)(F)CC4)(CC2)CC3)cc1 [Compound 2.46, (E)-4-(4-((2-(aminomethyl)-3-fluoroallyl)oxy)phenyl)-N-(4,4-difluorocyclohexyl)bicyclo [2.2.2]octane-1-carboxamide] | ≤ 10 nM |
| NC/C(=C\F)COc1ccc(C23CCC(C(=O)NCCO)(CC2)CC3)cc1 [Compound 2.47, (E)-4-(4-((2-(aminomethyl)-3-fluoroallyl)oxy)phenyl)-N-(2-hydroxyethyl)bicyclo[2.2.2] octane-1-carboxamide] | ≤ 10 nM |
| CC(C)(O)CNC(=O)C12CCC(c3ccc(OC/C(=C/F)CN)cc3)(CC1)CC2 [Compound 2.48, (E)-4-(4-((2-(aminomethyl)-3-fluoroallyl)oxy)phenyl)-N-(2-hydroxy-2-methylpropyl)bicyclo[2.2.2] octane-1-carboxamide] | ≤ 10 nM |
| CC(C)(C)NC(=O)C12CCC(c3ccc(OC/C(=C/F)CN)cc3)(CC1)CC2 [Compound 2.49, (E)-4-(4-((2-(aminomethyl)-3-fluoroallyl)oxy)phenyl)-N-(tert-butyl)bicyclo[2.2.2]octane-1-carboxamide] | ≤ 10 nM |
| NC/C(=C\F)COc1ccc(C23CCC(C(=O)N4CCCOCC4)(CC2)CC3)cc1 [Compound 2.50, (E)-(4-(4-((2-(aminomethyl)-3-fluoroallyl)oxy)phenyl)bicyclo [2.2.2]octan-1-yl)(1,4-oxazepan-4-yl)methanone] | ≤ 10 nM |
| COCCOCCOCCOCCNC(=O)C12CCC(c3ccc(OC/C(=C/F)CN)cc3)(CC1)CC2 [Compound 2.51, (E)-4-(4-((2-(aminomethyl)-3-fluoroallyl)oxy)phenyl)-N-(2,5,8,11-tetraoxatridecan-13-yl)bicyclo[2.2.2]octane-1-carboxamide] | ≤ 10 nM |
| CC1(C)CN(C(=O)C23CCC(c4ccc(OC/C(=C/F)CN)cc4)(CC2)CC3)C1 [Compound 2.52, (E)-(4-(4-((2-(aminomethyl)-3-fluoroallyl)oxy)phenyl)bicyclo [2.2.2]octan-1-yl)(3,3-dimethylazetidin-1-yl)methanone] | ≤ 10 nM |
| NC/C(=C\F)COc1ccc(C23CCC(C(=O)N4CC(O)(C(F)(F)F)C4)(CC2)CC3)cc1 [Compound 2.53, (E)-(4-(4-((2-(aminomethyl)-3-fluoroallyl)oxy)phenyl)bicyclo [2.2.2]octan-1-yl)(3-hydroxy-3-(trifluoromethyl)azetidin-1-yl)methanone] | ≤ 10 nM |
| CN(CCO)C(=O)C12CCC(c3ccc(OC/C(=C/F)CN)cc3)(CC1)CC2 [Compound 2.54, (E)-4-(4-((2-(aminomethyl)-3-fluoroallyl)oxy)phenyl)-N-(2-hydroxyethyl)-N-methylbicyclo[2.2.2]octane-1-carboxamide] | ≤ 10 nM |
